One experiment deals with T1, human type 1 glycine transporter (GlyT1) (Homo sapiens, UniProt P48067).
T1 construct: T98G cells (glioma cells) expressing human type 1 glycine transporter (GlyT1) were used; endogenous in cells; host or cells: T98G cells (human glioma cells)
T1 sequence (P48067 1-706): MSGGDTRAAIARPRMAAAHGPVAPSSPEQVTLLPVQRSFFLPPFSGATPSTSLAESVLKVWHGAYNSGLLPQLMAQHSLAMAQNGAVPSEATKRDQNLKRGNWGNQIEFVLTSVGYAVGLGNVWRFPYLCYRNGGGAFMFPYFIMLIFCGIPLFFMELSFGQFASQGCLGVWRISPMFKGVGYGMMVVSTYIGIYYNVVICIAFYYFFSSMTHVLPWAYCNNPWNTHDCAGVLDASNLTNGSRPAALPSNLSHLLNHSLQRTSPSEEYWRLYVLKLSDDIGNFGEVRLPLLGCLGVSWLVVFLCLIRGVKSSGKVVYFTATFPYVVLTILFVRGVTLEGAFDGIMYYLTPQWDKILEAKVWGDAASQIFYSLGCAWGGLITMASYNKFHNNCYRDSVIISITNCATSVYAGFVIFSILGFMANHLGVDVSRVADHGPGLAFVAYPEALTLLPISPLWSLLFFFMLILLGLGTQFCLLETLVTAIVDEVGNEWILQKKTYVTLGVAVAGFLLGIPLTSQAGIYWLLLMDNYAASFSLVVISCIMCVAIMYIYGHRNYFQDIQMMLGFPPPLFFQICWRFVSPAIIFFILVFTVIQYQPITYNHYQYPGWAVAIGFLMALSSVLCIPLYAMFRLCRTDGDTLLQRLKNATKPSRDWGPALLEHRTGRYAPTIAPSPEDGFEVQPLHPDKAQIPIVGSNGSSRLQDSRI
Description: Glycine uptake inhibition experiment ([3H] glycine uptake in T98G cells expressing GlyT1). Format: cell-based.
Settings: not given
On the procedure: Glycine Uptake Inhibition Experiment
A glycine uptake experiment was conducted in accordance with the method published in Neuron, 8, 927-935, 1992. In the experiment, T98G cells (glioma cells) expressing human type 1 glycine transporter (GlyT1) were used. The T98G cells were seeded in a 96-well plate at 2.0×10^4 cells/well and cultured overnight in a CO2 incubator. The test substance was dissolved in a 100% DMSO solution and then dissolved in a 10 mM HEPES buffer solution (pH 7.4) containing 150 mM sodium chloride, 1 mM calcium chloride, 5 mM potassium chloride, 1 mM magnesium chloride, 10 mM glucose and 0.2% bovine serum albumin. After removing the cell culture medium, the test substance was subjected to a 10-min pretreatment. Subsequently, the test substance and [^3H] glycine (final concentration: 250 nM) were added to the cells and reaction was performed at room temperature for 15 minutes. After the end of the reaction, the extracellular fluid was aspirated with a manifold to remove excess labeled glycine present outside the cells, and then the cells were lysed with a 0.5 M aqueous sodium hydroxide solution. The glycine content in the cells was determined by measuring the radioactivity in the cell lysate with a liquid scintillation counter. Glycine uptake in the presence of 10 μM ALX5407 was defined as non-specific uptake, and the value calculated by subtracting the amount of the non-specific uptake from the total uptake in the absence of 10 μM ALX5407 was defined as specific uptake. In addition, glycine uptake inhibitory activity (IC50 value) was calculated from an inhibition curve at the concentrations of each test substance ranging from 10^−9 to 10^−5 M. It should be noted that ALX5407 is an HCl salt of N-[(3R)-3-([1,1′-biphenyl]-4-yloxy)-3-(4-fluorophenyl)propyl]-N-methylglycine.
With `C[C@H](O)c1cccc2c1C(F)(F)C(=O)N2Cc1ncc(F)cc1C#N` [Compound 233, 2-({3,3-difluoro-4-[(1S)-1-hydroxyethyl)-2-oxo-2,3-dihydro-1H-indol-1-yl}methyl)-5-fluoropyridine-3-carbonitrile], the IC50 is 180 nM.

On to `COc1cc(CN2C(=O)C(F)(F)c3c(C(O)C(F)F)cccc32)ccn1` (single isomer, unassigned) [Compound 165, 4-(2,2-difluoro-1-hydroxyethyl)-3,3-difluoro-1-[(2-methoxypyridin-4-yl)methyl]-1,3-dihydro-2H-indol-2-one], for which the half-inhibitory concentration (IC50) was found to be 48 nM.

The compound `C[C@H](O)c1cccc2c1C(F)(F)C(=O)N2Cc1ccc(C#N)nc1` [Compound 201, 5-({3,3-difluoro-4-[(1S)-1-hydroxyethyl]-2-oxo-2,3-dihydro-1-indol-1-yl}methyl)pyridine-2-carbonitrile] returned an IC50 of 830 nM.

On to `C[C@H](O)c1cccc2c1C(F)(F)C(=O)N2Cc1ccc(C(F)(F)F)c(C#N)n1` [Compound 216, 6-({3,3-difluoro-4-[(1S)-1-hydroxyethyl]-2-oxo-2,3-dihydro-1H-indol-1-yl}methyl)-3-(trifluoromethyl) pyridine-2-carbonitrile], for which the IC50 was determined as 9.4 nM.

Compound `O=C1N(Cc2cncc(Cl)n2)c2cccc(C(O)C(F)F)c2C1(F)F` (single isomer, unassigned) [Compound 172, 1-[(6-chloropyrazin-2-yl)methyl]-4-(2,2-difluoro-1-hydroxyethyl)-3,3-difluoro-1,3-dihydro-2H-indol-2-one] showed an IC50 of 24 nM.

The compound `COc1cc(CN2C(=O)C(F)(F)c3c(C(O)C(F)F)cccc32)cnc1F` (single isomer, unassigned) [Compound 273, 4-(2,2-difluoro-1-hydroxyethyl)-3,3-difluoro-1-[(6-fluoro-5-methoxypyridin-3-yl)methyl]-1,3-dihydro-2H-indol-2-one] showed an IC50 of 140 nM. This IC50 lies about 5.8-fold higher than the previous one.

`C[C@H](O)c1cccc2c1C(F)(F)C(=O)N2Cc1cnccc1Cl` [Compound 207, 1-[(4-chloropyridin-3-yl)methyl]-3,3-difluoro-4-[(1S)-1-hydroxyethyl]-1,3-dihydro-2H-indol-2-one] yielded an IC50 of 94 nM.

The compound `O=C1N(Cc2nc3cc(F)ccc3o2)c2cccc(C(O)C(F)F)c2C1(F)F` (single isomer, unassigned) [Compound 171, 4-(2,2-difluoro-1-hydroxyethyl)-3,3-difluoro-1-[(5-fluoro-1,3-benzoxazol-2-yl)methyl]-1,3-dihydro-2H-indol-2-one] registered a half-maximal inhibitory concentration (IC50) of 170 nM.

In turn, `C[C@H](O)c1cccc2c1C(F)(F)C(=O)N2Cc1cnc(Cl)cn1` [Compound 199, 1-[(5-chloropyrazin-2-yl)methyl]-3,3-difluoro-4-[(1S)-1-hydroxyethyl]-1,3-dihydro-2H-indol-2-one] gave a half-inhibitory concentration (IC50) of 110 nM.

As for `C[C@H](O)c1cccc2c1C(F)(F)C(=O)N2Cc1ccnc(C#N)c1F` [Compound 173, 4-({3,3-difluoro-4-[(1S)-1-hydroxyethyl]-2-oxo-2,3-dihydro-1H-indol-1-yl}methyl)-3-fluoropyridine-2-carbonitrile], the IC50 worked out at 19 nM. Against the preceding compound, the IC50 is about 5.8-fold lower.

On to `C[C@H](O)c1cccc2c1C(F)(F)C(=O)N2Cc1ncc(Cl)cc1C#N` [Compound 242], for which the half-inhibitory concentration (IC50) is 83 nM.

For the compound `C[C@H](O)c1cccc2c1C(F)(F)C(=O)N2Cc1cccc(C#N)n1` [Compound 177, 6-({3,3-difluoro-4-[(1S)-1-hydroxyethyl]-2-oxo-2,3-dihydro-1H-indol-1-yl}methyl)pyridine-2-carbonitrile], half-maximal inhibition (IC50) required 24 nM.

Staying with this experiment, now noted: glycine uptake inhibition.
`C[C@H](O)c1cccc2c1C(F)(F)C(=O)N2Cc1ccccn1` [Compound 60, 3,3-difluoro-4-[(1S)-1-hydroxyethyl]-1-(pyridin-2-ylmethyl)-1,3-dihydro-2H-indol-2-one] came in with a 50% inhibitory concentration (IC50) of 230 nM. This lies in the sub-micromolar range.

In turn, `C[C@H](O)c1cccc2c1C(F)(F)C(=O)N2Cc1ccnc(C(F)(F)F)c1` [Compound 86, 3,3-difluoro-4-[(1S)-1-hydroxyethyl]-1-{[2-(trifluoromethyl)pyridin-4-yl]methyl}-1,3-dihydro-2H-indol-2-one] yielded an IC50 of 24 nM.

In turn, `C[C@H](O)c1cccc2c1C(F)(F)C(=O)N2Cc1cc2ccccc2c(=O)n1C` [Compound 100, 3-({3,3-difluoro-4-[(1S)-1-hydroxyethyl]-2-oxo-2,3-dihydro-1H-indol-1-yl}methyl)-2-methylisoquinolin-1(2H)-one] registered an IC50 of 29 nM.

The compound `O=C1N(Cc2cnc3ccccc3c2)c2cccc(C(O)C(F)F)c2C1(F)F` (single isomer, unassigned) [Compound 143, 4-(2,2-difluoro-1-hydroxyethyl)-3,3-difluoro-1-(quinolin-3-ylmethyl)-1,3-dihydro-2H-indol-2-one] displayed an IC50 of 48 nM. Compared with the last compound, the IC50 is about 1.7-fold higher.

Compound `C[C@H](O)c1cccc2c1C(F)(F)C(=O)N2Cc1cc2ccccc2c(=O)[nH]1` [Compound 99, 3-({3,3-difluoro-4-[(1S)-1-hydroxyethyl]-2-oxo-2,3-dihydro-1H-indol-1-yl}methyl) isoquinolin-1(2H)-one] registered an IC50 of 48 nM. In other words, the double-digit nanomolar range.

Compound `N#Cc1cc(CN2C(=O)C(F)(F)c3c(C(O)C(F)(F)F)cccc32)ccn1` (centres unmarked) [Compound 14, 4-{[3,3-difluoro-2-oxo-4-(2,2,2-trifluoro-1-hydroxyethyl)-2,3-dihydro-1H-indol-1-yl]methyl}pyridine-2-carbonitrile] yielded an IC50 of 120 nM.

`C[C@H](O)c1cccc2c1C(F)(F)C(=O)N2Cc1cccc(-n2cncn2)n1` [Compound 62, 3,3-difluoro-4-[(1S)-1-hydroxyethyl]-1-{[6-(1H-1,2,4-triazol-1-yl)pyridin-2-yl]methyl}-1,3-dihydro-2H-indol-2-one] registered an IC50 of 230 nM.

For the compound `O=C1N(Cc2cccc(Cl)n2)c2cccc(C(O)C(F)(F)F)c2C1(F)F` (single isomer, unassigned) [Compound 9, 1-[(6-chloropyridin-2-yl)methyl]-3,3-difluoro-4-(2,2,2-trifluoro-1-hydroxyethyl)-1,3-dihydro-2H-indol-2-one], it took 17 nM to reach half-maximal inhibition (IC50). Compared with the last compound, the IC50 is about 14-fold lower.

With `C[C@H](O)c1cccc2c1C(F)(F)C(=O)N2Cc1ccc2cc[nH]c2n1` [Compound 115, 3,3-difluoro-4-[(1S)-1-hydroxyethyl]-1-(1H-pyrrolo[2,3-b]pyridin-6-ylmethyl)-1,3-dihydro-2H-indol-2-one], the IC50 worked out at 98 nM.

As to `COc1cccc(CN2C(=O)C(F)(F)c3c([C@H](C)O)cccc32)c1` [Compound 59, 3,3-difluoro-4-[(1S)-1-hydroxyethyl]-1-(3-methoxybenzyl)-1,3-dihydro-2H-indol-2-one], the concentration for half-maximal inhibition (IC50) turned out to be 18 nM.

With `C[C@H](O)c1c(Cl)ccc2c1C(F)(F)C(=O)N2Cc1ccnc(C#N)c1` [Compound 107, 4-({5-chloro-3,3-difluoro-4-[(1S)-1-hydroxyethyl]-2-oxo-2,3-dihydro-1H-indol-1-yl}methyl)pyridine-2-carbonitrile], the half-maximal inhibitory concentration (IC50) was found to be 150 nM.

In turn, `C[C@H](O)c1cccc2c1C(F)(F)C(=O)N2Cc1cc(C(F)(F)F)ccn1` [Compound 96, 3,3-difluoro-4-[(1S)-1-hydroxyethyl]-1-{[4-(trifluoromethyl)pyridin-2-yl]methyl}-1,3-dihydro-2H-indol-2-one] yielded a half-inhibitory concentration (IC50) of 51 nM.

The compound `C[C@H](O)c1cccc2c1C(F)(F)C(=O)N2Cc1ccc(C(F)(F)F)o1` [Compound 94, 3,3-difluoro-4-[(1S)-1-hydroxyethyl]-1-{[5-(trifluoromethyl)furan-2-yl]methyl}-1,3-dihydro-2H-indol-2-one] had a 50% inhibitory concentration (IC50) of 6 nM.

Compound `Cn1c(CN2C(=O)C(F)(F)c3c([C@@H](O)C(F)(F)F)cccc32)nc2ccccc2c1=O` [Compound 37, 2-({3,3-difluoro-2-oxo-4-[(1R)-2,2,2-trifluoro-1-hydroxyethyl]-2,3-dihydro-1H-indol-1-yl}methyl)-3-methylquinazolin-4(3H)-one] gave an IC50 of 43 nM.

As a reminder, the IC50 is the point on the concentration scale where inhibition reaches its midpoint.

(Values after US20160159814A1, “GLYCINE TRANSPORTER INHIBITOR” (TAISHO PHARMACEUTICAL CO., LTD., priority 2013, published 2016).)
